Measured values as given in patent publication US20040142317A1, “Use of amino acid transporter atbo,+ as a delivery system for drugs and prodrugs” (priority 2003, published 2004).

Experiments:
mouse ATB^0,+ [1] = biological target: T1, mouse ATB^0,+ (Mus musculus, UniProt Q9JMA9); assay: cell-based
T1 sequence (Q9JMA9 1-638): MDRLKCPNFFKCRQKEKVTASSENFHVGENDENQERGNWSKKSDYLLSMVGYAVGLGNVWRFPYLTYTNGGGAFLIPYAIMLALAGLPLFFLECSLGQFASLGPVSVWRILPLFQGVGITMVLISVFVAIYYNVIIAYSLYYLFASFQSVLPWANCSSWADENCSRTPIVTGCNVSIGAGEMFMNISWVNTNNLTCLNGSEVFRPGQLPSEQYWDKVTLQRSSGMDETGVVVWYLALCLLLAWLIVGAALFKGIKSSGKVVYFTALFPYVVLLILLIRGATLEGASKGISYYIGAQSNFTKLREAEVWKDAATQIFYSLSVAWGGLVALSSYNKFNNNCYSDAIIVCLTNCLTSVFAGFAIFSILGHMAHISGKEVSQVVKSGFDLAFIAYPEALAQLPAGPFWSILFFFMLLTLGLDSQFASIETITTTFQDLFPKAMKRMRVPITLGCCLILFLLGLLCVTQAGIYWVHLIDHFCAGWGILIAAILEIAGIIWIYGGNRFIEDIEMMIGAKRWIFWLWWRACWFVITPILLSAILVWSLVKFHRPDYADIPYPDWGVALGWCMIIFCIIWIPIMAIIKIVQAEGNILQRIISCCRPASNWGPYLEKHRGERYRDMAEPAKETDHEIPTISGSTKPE

mouse ATB^0,+ [2] = biological target: T1, mouse ATB^0,+
ATB^0 = biological target: T2, ATB^0 (Homo sapiens, UniProt Q15758); assay: cell-based
T2 sequence (Q15758 1-541): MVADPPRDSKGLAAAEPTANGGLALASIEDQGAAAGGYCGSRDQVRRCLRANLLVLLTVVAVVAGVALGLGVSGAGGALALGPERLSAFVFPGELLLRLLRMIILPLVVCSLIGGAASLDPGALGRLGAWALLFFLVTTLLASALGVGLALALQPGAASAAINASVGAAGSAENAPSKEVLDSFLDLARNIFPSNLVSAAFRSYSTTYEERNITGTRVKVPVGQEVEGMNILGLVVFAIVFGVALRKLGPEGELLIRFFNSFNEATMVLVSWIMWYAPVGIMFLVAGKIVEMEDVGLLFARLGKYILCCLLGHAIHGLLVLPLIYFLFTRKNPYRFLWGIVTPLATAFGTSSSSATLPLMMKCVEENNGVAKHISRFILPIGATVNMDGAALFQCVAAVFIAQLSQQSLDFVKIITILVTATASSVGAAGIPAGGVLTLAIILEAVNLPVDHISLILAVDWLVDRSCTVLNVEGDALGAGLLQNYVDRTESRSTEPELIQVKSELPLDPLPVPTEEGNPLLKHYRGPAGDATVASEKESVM

mouse ATB^0,+ [3] = biological target: T1, mouse ATB^0,+; remark: listed apart in the source
mouse ATB^0,+ [4] = biological target: T1, mouse ATB^0,+; assay: Transport of radiolabeled substrates in HRPE cells expressing cloned mouse ATB0,+; type: cell-based
mouse ATB^0,+ [5] = biological target: T1, mouse ATB^0,+; remark: listed apart in the source
OCTN2 = biological target: T3, OCTN2 (Homo sapiens, UniProt O76082); conditions: literature values; cited from earlier work
T3 sequence (O76082 1-557): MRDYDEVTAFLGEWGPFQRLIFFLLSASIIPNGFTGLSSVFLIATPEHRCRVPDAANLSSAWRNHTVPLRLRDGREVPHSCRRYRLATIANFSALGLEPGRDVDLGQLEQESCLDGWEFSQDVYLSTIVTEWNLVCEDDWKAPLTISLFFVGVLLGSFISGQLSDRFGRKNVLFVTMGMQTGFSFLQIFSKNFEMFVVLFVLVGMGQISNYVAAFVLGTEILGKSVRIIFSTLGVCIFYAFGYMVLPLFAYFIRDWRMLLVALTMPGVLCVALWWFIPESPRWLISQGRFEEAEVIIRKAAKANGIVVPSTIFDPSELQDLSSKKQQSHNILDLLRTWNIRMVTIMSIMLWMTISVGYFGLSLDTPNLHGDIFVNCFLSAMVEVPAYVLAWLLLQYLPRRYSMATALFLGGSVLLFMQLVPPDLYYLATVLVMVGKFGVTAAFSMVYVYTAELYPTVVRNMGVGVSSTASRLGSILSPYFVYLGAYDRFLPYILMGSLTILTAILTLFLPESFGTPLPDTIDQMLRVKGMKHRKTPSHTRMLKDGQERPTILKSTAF

ATB^0,+ mRNA = assay: ATB0,+ mRNA levels in mouse intestine after bacterial lipopolysaccharide injection (semi-quantitative RT-PCR); type: in vivo; conditions: 5 mg/kg i.p., 16 h; GAPDH as internal control
Description: Mice were injected i.p. with either saline (control) or bacterial lipopolysaccharide (5 mg/kg body wt). 16 h following injection, mice were killed and the various segments of the intestine (J, jejunum; L, ileum; C, colon) were collected for mRNA isolation. Five-week-old IL2^+/+ and IL2^−/− mice were killed and the various segments of the intestine were collected for mRNA isolation. Semiquantitative RT-PCR with low number of PCR cycles was carried out with primer pairs specific for mouse ATB^0,+, mouse glyceraldehyde-3-phosphate dehydrogenase (GAPDH), and mouse cyclophilin C (CypC) and the RT-PCR products were detected by Southern hybridization and the signals were quantified.
Since D-serine is an important modulator of glutamatergic neurotransmission and other D-amino acids may also have significant biological effects, it is of clinical relevance to know if there are any pathological conditions in which the intestinal absorption of D-amino acids may be altered. Therefore, the present inventors assessed the expression of ATB^0,+ in the intestinal tract under inflammatory conditions that are known to affect intestinal function. The present inventors used two different animal models for this purpose. […] The steady-state levels of ATB^0,+ mRNA were examined by a semi-quantitative RT-PCR in the jejunum, ileum, and colon. […]

[6] = substrate: NC(=N[N+](=O)[O-])Nc1cccc([C@H](N)C(=O)O)c1; assay: cells, lysate or membranes; conditions: pH 7.5
[7] = substrate: N=C(NCCC[C@H](N)C(=O)O)N[N+](=O)[O-]; assay: cells, lysate or membranes; conditions: other: oocytes, various concentrations; pH 7.5
[8] = HRPE cells, radiolabeled substrate

C[C@H](N)C(=O)O [Alanine]
Ki (mouse ATB^0,+ [1]): 101 ± 14.2 µM | Current in X. laevis oocytes (nA), L-isomer (mouse ATB^0,+ [2]; L-amino acid 1 mM, NaCl pH 7.5): 650 ± 86 nA | Ki (ATB^0): 22.5 ± 4.2 µM

N[C@H](C(=O)O)c1ccccc1 [Phenylglycine, L-phenylglycine]
Ki (mouse ATB^0,+ [1]): 5.3 ± 0.4 µM | Ki (ATB^0): 19 ± 5.5 µM | affinity of ATB^0,+ relative to ATB^0 (mouse ATB^0,+ [3]; from Ki values of Table 5): 4 times | affinity of ATB^0,+ relative to affinity for glycine (mouse ATB^0,+ [3]; from Ki values of Table 5): 19 times | affinity of ATB^0,+ relative to affinity for phenylalanine (mouse ATB^0,+ [3]; from Ki values of Table 5): 13 times | affinity of ATB^0,+ relative to b^0,+AT (mouse ATB^0,+ [3]; from Ki values of Table 5): 53 times | transport in ATB^0,+-expressing cells versus vector-transfected cells (in words) (mouse ATB^0,+ [4]; HRPE cells, [14C]phenylglycine 10 μM or [8-3H]-valacyclovir 1.25 μM): three times higher | cDNA-specific transport by ATB^0,+ relative to ATB^0 and mb^0,+AT (mouse ATB^0,+ [4]; [14C]phenylglycine 10 μM, HRPE cells): ten times higher | inhibition (mouse ATB^0,+ [5]): 100%

C[N+](C)(C)CC(O)CC(=O)[O-] (stereo not drawn) [carnitine, β-hydroxy-γ-trimethylaminobutyrate]
Kt of OCTN2 (OCTN2): 5 to 15 µM | induced inward currents (mouse ATB^0,+ [2]; 10 mM carnitine, esters under similar conditions): ~300 nA | Hill coefficient (nH) for Cl− activation of substrate-induced currents (mouse ATB^0,+ [2]; oocytes, carnitine 1 mM): 0.9±0.2 | Hill coefficient (nH) for Na+ activation of substrate-induced currents (mouse ATB^0,+ [2]; oocytes, carnitine 1 mM): 1.9±0.5 | K0.5 for Cl− of substrate-induced currents (mouse ATB^0,+ [2]; oocytes, carnitine 1 mM): 15 ± 5 mM | K0.5 for Na+ of substrate-induced currents (mouse ATB^0,+ [2]; oocytes, carnitine 1 mM): 25 ± 4 mM | K0.5 (concentration inducing half-maximal current; Michaelis-Menten constant) (mouse ATB^0,+ [2]; oocytes, membrane potential −50 mV): 1.8 ± 0.4 mM | IC50 (mouse ATB^0,+ [3]): 600 ± 100 µM | Hill coefficient for Na+ activation of substrate transport (mouse ATB^0,+ [4]; HRPE cells): 1.6±0.1 | K0.5 for Na+ in substrate transport (mouse ATB^0,+ [4]; HRPE cells): 54 ± 4 mM | Vmax of ATB^0,+-mediated transport (mouse ATB^0,+ [4]; HRPE cells): 72±2 nmol/10^6 cells/15 min | Michaelis-Menten constant (Kt) of transport via mouse ATB^0,+ (mouse ATB^0,+ [4]; [8]): 0.83 ± 0.08 mM | transport in ATB^0,+ cDNA-transfected cells compared to vector-transfected cells (mouse ATB^0,+ [4]; [8]): 16 fold | reduction of transport on removal of Cl− (gluconate) (mouse ATB^0,+ [4]; carnitine 15 μM, HRPE cells): ~60% | transport when Na+ substituted with N-methyl-D-glucamine (mouse ATB^0,+ [4]; carnitine 15 μM, HRPE cells): completely abolished | Kt of ATB^0,+ (discussion summary) (mouse ATB^0,+ [4]; summary of HRPE cell and oocyte values): 1 to 2 mM

lipopolysaccharide
increase of ATB^0,+ mRNA versus saline-treated mice, colon (ATB^0,+ mRNA): 2 fold | increase of ATB^0,+ mRNA versus saline-treated mice, ileum (ATB^0,+ mRNA): 7 fold

B1: mouse ATB^0,+ (Mus musculus) (protein)
chain: MDRLKCPNFFKCRQKEKVTASSENFHVGENDENQERGNWSKKSDYLLSMVGYAVGLGNVWRFPYLTYTNGGGAFLIPYAIMLALAGLPLFFLECSLGQFASLGPVSVWRILPLFQGVGITMVLISVFVAIYYNVIIAYSLYYLFASFQSVLPWANCSSWADENCSRTPIVTGCNVSIGAGEMFMNISWVNTNNLTCLNGSEVFRPGQLPSEQYWDKVTLQRSSGMDETGVVVWYLALCLLLAWLIVGAALFKGIKSSGKVVYFTALFPYVVLLILLIRGATLEGASKGISYYIGAQSNFTKLREAEVWKDAATQIFYSLSVAWGGLVALSSYNKFNNNCYSDAIIVCLTNCLTSVFAGFAIFSILGHMAHISGKEVSQVVKSGFDLAFIAYPEALAQLPAGPFWSILFFFMLLTLGLDSQFASIETITTTFQDLFPKAMKRMRVPITLGCCLILFLLGLLCVTQAGIYWVHLIDHFCAGWGILIAAILEIAGIIWIYGGNRFIEDIEMMIGAKRWIFWLWWRACWFVITPILLSAILVWSLVKFHRPDYADIPYPDWGVALGWCMIIFCIIWIPIMAIIKIVQAEGNILQRIISCCRPASNWGPYLEKHRGERYRDMAEPAKETDHEIPTISGSTKPE
Km [6]: 106 ± 1 µM | Km [7]: 348 ± 5 µM
